Laboratory results published in US4808618A, “Substituted 1,3-dialkylpyrido[4,3-d]pyrimidine-2,4-diones” (Nippon Zoki Pharmaceutical Co., Ltd., priority 1986, dated 1989).

Experiments:
[1] = Acute toxicity test (oral, LD50 by Litchfield-Wilcoxon's method); conditions: mouse, in vivo, ICR-strain male mice, groups of 5, mortality for 14 days
Protocol: The test compounds were orally administered to groups of 5 ICR-strainmale mice. LD50 value of the compound of the present invention was calculated by the Litchfield-Wilcoxon's method based on mortality for 14 days after drug administration.

[2] = system: PCA (Passive Cutaneous Anaphylaxis) reaction; assay: PCA (Passive Cutaneous Anaphylaxis) reaction in rats, anti-allergic effect; type: in vivo, rat (Wister-strain; conditions: 20 mg/kg oral, 1 hour before challenge; Wister-strain male rats; dye absorbance at 620 nm
Protocol: PCA (Passive Cutaneous Anaphylaxis) reaction in rats was taken as an index to an anti-allergic effect of the compound of the present invention.
In order to perform sensitization, anti-DNP-Asc (dinitrophenylated Ascaris extracts) serum diluted with saline was injected intradermally at 4 sites on the shaved back of groups of 6 Wister-strain male rats (6 weeks of age). 1 hour after oral administration of the test drug, the mixture of equivalent amount of DNP-Asc (5 mg/ml) and 2% Evans blue were intravenously injected to generate PCA reaction. 30 minutes thereafter, rats were killed by decapitation and exsanguinated. The skin was opened in order to evaluate the leakage of blue dye. The obtained skin was dissolved in 2N potassium hydroxide, then 2N phosphoric acid and acetone were added thereto. The amount of dye was determined by measurement of absorbance at 620 nm after centrifugation.

Structure (SMILES) | LD50 at 336 h [1] [mg/kg] | Inhibition (PCA reaction) [2] [%]
CNc1nccc2c1c(=O)n(C)c(=O)n2C [Compound 6, 5-methylamino-1,3-dimethylpyrido[4,3-d]pyrimidine-2,4-dione] | 720 | 92.0
Cn1c(=O)c2c(N)nccc2n(C)c1=O [Compound 3, 5-amino-1,3-dimethylpyrido[4,3-d]pyrimidine-2,4-dione] | 710 | 77.3
CCn1c(=O)c2c(N)nccc2n(CC)c1=O [Compound 4, 5-amino-1,3-diethylpyrido[4,3-d]pyrimidine-2,4-dione] | – | 89.3
CCn1c(=O)c2c(NC)nccc2n(CC)c1=O [Compound 7, 5-methylamino-1,3-diethylpyrido[4,3-d]pyrimidine-2,4-dione] | – | 72.7
Cn1c(=O)c2cnccc2n(C)c1=O [Compound 1, 1,3-dimethylpyrido[4,3-d]pyrimidine-2,4-dione] | 400 | 85.3
Cn1c(=O)c2[nH]cnc2n(C)c1=O [Theophylline, reference compound] | – | 78.7
CC(C)Nc1nccc2c1c(=O)n(C)c(=O)n2C [Compound 8, 5-isopropylamino-1,3-dimethylpyrido[4,3-d]pyrimidine-2,4-dione] | 700 | 73.4
